Article PMC7799360, “Reprogramming immunosuppressive myeloid cells facilitates immunotherapy for colorectal cancer” (EMBO Molecular Medicine, 2020)
Read-outs that look alike come from different tables or passages of the source.

Key:
HTR2B = molecular target: T1, HTR2B (Homo sapiens, UniProt P41595); experiment: GPCR calcium flux assay; type: cell-based
T1 construct: Pharmaron (Beijing, China), contract laboratory

ADORA2A = molecular target: T2, ADORA2A (Homo sapiens, UniProt P29274); experiment: LANCE Ultra cAMP assay; type: cell-based
T2 construct: Pharmaron (Beijing, China) performed the assay
T2 sequence (P29274 whole entry, species assumed): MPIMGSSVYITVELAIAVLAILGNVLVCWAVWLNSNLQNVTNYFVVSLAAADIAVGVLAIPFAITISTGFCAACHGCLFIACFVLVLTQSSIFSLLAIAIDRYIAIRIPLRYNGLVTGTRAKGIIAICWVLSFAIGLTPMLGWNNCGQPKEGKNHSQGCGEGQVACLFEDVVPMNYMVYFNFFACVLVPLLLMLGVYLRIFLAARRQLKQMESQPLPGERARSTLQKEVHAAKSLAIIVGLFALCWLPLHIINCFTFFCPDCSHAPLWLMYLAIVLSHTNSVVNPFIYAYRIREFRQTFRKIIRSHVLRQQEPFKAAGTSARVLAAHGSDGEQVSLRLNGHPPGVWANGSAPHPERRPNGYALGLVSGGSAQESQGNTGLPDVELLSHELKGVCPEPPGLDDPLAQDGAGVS

AVPR1A = molecular target: T3, AVPR1A (Homo sapiens, UniProt P37288); experiment: GPCR calcium flux assay; type: cell-based
T3 construct: Pharmaron (Beijing, China), contract laboratory
T3 sequence (P37288 whole entry, species assumed): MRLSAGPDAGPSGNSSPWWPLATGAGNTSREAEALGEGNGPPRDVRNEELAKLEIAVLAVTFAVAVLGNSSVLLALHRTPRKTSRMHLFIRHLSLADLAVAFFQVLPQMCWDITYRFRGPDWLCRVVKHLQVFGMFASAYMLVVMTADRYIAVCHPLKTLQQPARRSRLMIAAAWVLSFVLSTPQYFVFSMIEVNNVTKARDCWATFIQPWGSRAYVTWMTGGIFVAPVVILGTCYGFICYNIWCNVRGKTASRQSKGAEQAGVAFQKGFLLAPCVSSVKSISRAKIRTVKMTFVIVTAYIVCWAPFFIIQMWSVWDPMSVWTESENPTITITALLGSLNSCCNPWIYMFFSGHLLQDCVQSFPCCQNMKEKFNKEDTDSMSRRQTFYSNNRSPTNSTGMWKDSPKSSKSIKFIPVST

ADORA2B = ADORA2B (Homo sapiens, UniProt P29275); experiment: LANCE Ultra cAMP assay
ADORA2B, sequence (P29275 whole entry, species assumed): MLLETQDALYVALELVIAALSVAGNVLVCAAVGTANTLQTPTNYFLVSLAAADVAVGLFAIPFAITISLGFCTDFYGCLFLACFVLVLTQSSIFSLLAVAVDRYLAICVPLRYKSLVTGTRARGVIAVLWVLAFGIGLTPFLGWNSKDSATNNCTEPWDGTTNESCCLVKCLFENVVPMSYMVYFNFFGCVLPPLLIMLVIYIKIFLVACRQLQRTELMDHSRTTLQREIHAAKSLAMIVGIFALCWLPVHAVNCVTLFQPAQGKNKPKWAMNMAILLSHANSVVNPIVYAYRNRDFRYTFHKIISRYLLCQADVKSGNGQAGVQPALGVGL

[1] = Pharmacokinetics in CD1 mice; type: in vivo, mouse; conditions: for AUC(0-t): read-out: AUC0-24
Excerpt: 5% (v/v) dimethyl sulfoxide ( DMSO), 10% solutol, and 85% β -cyclodextrin) to male CD1 mice (n = 3). Blood samples were collected at 0.08, 0.25, 0.5, 1, 2, 4, 8, and 24 hr after administration. After suitable sample preparation, the concentration of TP -16 in plasma samples was determine d by the Agilent 1290 HPLC system, coupled with a 6460 triple -quadrupole mass spectrometer and an Agilent Jet Stream electrospray ionization (ESI) source (Agilent
Technologies, USA). Pharmacokinetic parameters were calculated by WinNonlin software version 7.0 based on non -compartmental analysis
(Pharsight Corporation, Mountain View, USA). […]

ADRB1 = molecular target: T4, ADRB1 (Homo sapiens, UniProt P08588); experiment: GPCR calcium flux assay; type: cell-based
T4 construct: Pharmaron (Beijing, China) performed the assay
T4 sequence (P08588 whole entry, species assumed): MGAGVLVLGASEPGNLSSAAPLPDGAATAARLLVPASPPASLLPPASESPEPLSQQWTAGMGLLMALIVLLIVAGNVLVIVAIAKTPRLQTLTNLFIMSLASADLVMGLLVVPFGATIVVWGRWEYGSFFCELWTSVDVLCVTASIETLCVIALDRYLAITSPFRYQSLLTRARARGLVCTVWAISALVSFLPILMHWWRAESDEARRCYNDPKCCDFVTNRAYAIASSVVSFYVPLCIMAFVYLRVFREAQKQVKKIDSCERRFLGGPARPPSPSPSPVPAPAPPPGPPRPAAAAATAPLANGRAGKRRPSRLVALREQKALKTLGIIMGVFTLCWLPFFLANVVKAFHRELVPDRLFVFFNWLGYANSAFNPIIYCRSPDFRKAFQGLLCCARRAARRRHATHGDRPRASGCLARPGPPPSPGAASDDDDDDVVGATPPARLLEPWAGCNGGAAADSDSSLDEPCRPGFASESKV

[2] = In vitro metabolic stability using liver microsome; type: in vitro ADME; conditions: liver microsomes
CB2 = CB2 (Homo sapiens, UniProt P34972); experiment: LANCE Ultra cAMP assay
CB2, sequence (P34972 whole entry, species assumed): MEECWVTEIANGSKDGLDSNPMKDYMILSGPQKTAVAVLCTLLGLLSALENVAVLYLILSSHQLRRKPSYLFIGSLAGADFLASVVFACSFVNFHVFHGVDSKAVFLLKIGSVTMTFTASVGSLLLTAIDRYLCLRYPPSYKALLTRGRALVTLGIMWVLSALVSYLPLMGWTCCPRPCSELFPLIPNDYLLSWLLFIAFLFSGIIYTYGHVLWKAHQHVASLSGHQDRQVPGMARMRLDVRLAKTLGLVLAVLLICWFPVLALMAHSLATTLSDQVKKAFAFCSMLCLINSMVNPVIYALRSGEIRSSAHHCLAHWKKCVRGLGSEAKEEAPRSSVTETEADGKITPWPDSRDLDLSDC

ADORA3 = molecular target: T5, ADORA3 (Homo sapiens, UniProt P0DMS8); experiment: LANCE Ultra cAMP assay; type: cell-based
T5 construct: Pharmaron (Beijing, China) performed the assay
T5 sequence (P0DMS8 whole entry, species assumed): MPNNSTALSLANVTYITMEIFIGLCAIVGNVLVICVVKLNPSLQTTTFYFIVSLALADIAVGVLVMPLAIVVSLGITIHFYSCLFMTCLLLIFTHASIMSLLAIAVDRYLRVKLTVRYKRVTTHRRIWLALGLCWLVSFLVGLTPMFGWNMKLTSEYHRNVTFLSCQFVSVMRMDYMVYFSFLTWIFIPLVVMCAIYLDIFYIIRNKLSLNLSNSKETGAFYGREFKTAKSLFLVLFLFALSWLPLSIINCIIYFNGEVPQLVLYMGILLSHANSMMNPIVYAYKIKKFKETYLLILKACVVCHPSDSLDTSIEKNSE

CT26-Luc tumors = experiment: CT26-Luc orthotopic colorectal cancer mouse model; type: in vivo
CHRM2 = molecular target: T6, CHRM2 (Homo sapiens, UniProt P08172); experiment: GPCR calcium flux assay; type: cell-based
T6 construct: Pharmaron (Beijing, China), contract laboratory
T6 sequence (P08172 whole entry, species assumed): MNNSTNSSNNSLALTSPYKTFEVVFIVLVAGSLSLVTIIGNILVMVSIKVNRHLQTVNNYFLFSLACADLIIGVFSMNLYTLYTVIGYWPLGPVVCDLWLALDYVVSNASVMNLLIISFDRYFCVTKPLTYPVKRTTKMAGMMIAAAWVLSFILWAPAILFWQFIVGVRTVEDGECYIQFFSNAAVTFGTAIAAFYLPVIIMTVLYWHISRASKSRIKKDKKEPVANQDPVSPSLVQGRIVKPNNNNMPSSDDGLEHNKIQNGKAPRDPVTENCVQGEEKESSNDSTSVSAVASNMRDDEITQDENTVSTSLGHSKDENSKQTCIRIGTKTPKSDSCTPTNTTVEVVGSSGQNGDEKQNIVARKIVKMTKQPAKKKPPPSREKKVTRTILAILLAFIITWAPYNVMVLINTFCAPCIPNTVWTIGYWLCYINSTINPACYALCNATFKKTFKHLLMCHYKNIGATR

MC38 tumors = experiment: MC38 colorectal cancer model in C57BL/6 mice; type: in vivo, mouse; conditions: MC38, 75 mg/kg p.o. daily
Method: Syngeneic mouse tumor‐bearing models were established as described previously (Tan et al., 2018). Tumor cells (5 × 10^5 ‐ 2 × 10^6) were suspended in 100 μl PBS and implanted subcutaneously into the flank of mice. Mice were randomized into different treatment groups when tumor volumes reached 100‐200 mm^3. V = L×W^2 × 0.52, where L is the longest diameter, and W is the shortest diameter. Tumor size and body weight were recorded every second or third day. Mouse survival was analyzed using the Kaplan–Meier method.
Single agent or combination treatment was designed as follows: TP‐16 (37.5, 75, 150 mg/kg) or celecoxib (100 mg/kg) was formulated in 0.5% carboxymethylcellulose sodium (CMC‐Na, Sangon Biotech, Shanghai, China) and administered via oral gavage daily. In vivo anti‐PD1 antibody (clone RMP1‐14, BioXCell, West Lebanon, NH, USA) and rat IgG2a isotype control (clone 2A3, BioXCell) were diluted in sterile PBS and administered intraperitoneally at a dose of 50 μg twice weekly.

human EP1 = molecular target: T7, human EP1 (Homo sapiens, UniProt P34995); experiment: PGE2-induced calcium flux assay in CHO-Gα16 cells; type: cell-based
T7 construct: host or cells: CHO-Gα16
T7 sequence (P34995 whole entry): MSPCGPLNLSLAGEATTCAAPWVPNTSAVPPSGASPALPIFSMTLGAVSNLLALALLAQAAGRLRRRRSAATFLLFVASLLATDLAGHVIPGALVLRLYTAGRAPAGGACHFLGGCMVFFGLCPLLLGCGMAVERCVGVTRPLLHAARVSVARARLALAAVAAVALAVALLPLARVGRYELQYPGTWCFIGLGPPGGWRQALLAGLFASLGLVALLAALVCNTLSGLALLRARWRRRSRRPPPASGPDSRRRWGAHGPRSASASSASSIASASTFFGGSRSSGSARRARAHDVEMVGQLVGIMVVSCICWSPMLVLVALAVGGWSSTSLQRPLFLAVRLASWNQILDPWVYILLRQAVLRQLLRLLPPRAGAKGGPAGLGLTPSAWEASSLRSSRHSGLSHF

ADRA2A = molecular target: T8, ADRA2A (Homo sapiens, UniProt P08913); experiment: GPCR calcium flux assay; type: cell-based
T8 construct: Pharmaron (Beijing, China) performed the assay
T8 sequence (P08913 whole entry, species assumed): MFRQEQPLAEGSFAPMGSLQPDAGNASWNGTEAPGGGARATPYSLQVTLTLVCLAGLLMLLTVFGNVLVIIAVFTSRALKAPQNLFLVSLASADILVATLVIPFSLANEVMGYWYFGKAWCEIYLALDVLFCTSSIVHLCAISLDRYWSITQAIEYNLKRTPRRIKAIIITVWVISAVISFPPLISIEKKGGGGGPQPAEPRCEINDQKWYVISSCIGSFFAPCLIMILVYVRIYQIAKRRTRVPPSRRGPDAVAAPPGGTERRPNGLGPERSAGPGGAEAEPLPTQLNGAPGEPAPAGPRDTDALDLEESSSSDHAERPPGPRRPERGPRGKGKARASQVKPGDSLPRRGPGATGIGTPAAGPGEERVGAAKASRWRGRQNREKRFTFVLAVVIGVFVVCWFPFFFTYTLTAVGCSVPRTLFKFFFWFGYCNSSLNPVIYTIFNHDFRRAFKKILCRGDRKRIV

ADRB2 = molecular target: T9, ADRB2 (Homo sapiens, UniProt P07550); experiment: GPCR calcium flux assay; type: cell-based
T9 construct: Pharmaron (Beijing, China) performed the assay
T9 sequence (P07550 whole entry, species assumed): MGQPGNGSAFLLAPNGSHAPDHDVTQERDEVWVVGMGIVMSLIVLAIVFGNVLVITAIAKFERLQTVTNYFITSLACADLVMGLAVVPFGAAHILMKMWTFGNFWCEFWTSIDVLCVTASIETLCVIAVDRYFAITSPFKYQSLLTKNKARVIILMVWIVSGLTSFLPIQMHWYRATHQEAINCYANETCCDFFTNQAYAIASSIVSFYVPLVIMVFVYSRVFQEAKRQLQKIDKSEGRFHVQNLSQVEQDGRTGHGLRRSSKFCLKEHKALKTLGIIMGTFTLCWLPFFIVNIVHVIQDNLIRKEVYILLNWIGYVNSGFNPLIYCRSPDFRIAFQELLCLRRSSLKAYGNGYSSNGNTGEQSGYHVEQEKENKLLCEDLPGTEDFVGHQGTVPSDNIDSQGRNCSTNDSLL

other 25 GPCRs = experiment: GPCR selectivity (LANCE Ultra cAMP assay and calcium flux assay); conditions: read-out: IC50 on other 25 GPCRs; LANCE Ultra cAMP and calcium flux assays
[3] = male, mouse, plasma, iv, I.V. 1 mg/kg
[4] = male, mouse, plasma, po, P.O. 10 mg/kg

T1 sequence (P41595 whole entry, species assumed): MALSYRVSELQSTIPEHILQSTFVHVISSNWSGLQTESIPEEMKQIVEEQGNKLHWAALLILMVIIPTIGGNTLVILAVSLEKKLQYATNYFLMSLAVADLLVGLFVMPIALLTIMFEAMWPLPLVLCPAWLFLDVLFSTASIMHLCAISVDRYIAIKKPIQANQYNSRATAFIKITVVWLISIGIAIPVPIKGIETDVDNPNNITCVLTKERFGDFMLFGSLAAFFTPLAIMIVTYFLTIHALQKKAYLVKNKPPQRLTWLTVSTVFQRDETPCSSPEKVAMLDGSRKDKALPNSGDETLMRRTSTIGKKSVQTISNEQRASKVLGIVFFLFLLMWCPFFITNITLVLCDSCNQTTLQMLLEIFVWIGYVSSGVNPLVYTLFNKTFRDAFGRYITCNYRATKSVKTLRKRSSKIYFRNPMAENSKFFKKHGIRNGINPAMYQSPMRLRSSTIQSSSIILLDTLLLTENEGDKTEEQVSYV

## C[C@H](NC(=O)c1c(Cc2ccc(F)cc2)sc2c1CCOC2)c1ccc(C(=O)O)cc1 [TP-16]
HTR2B
  IC50: > 10 µM
ADORA2A
  IC50: > 10 µM
AVPR1A
  IC50: > 10 µM
ADORA2B
  IC50: > 10 µM
[1]; I.V. 1 mg/kg
  Vd/F: 2.016 L/kg
[1]; male, mouse, plasma, 10 mg/kg, ratio of oral AUC0-∞ to intravenous AUC0-∞
  bioavailability: 40.1%
[1]; [3]
  AUC(0-inf): 2140 ng·h/mL
  C0: 2370 ng/mL
  MRT: 2.1 h
  half-life: 3 h
  AUC(0-t): 2140 ng·h/mL
[1]; [4]
  AUC(0-inf): 8580 ng·h/mL
  CL/F: 19.4 mL/min/kg
  Cmax: 3850 ng/mL
  MRT: 3.7 h
  half-life: 5.4 h
  AUC(0-t): 8400 ng·h/mL
[1]; male, mouse, plasma, po, P.O. 10 mg/kg, read-out: Vd/F
  Vd/F: 9.08 L/kg
ADRB1
  IC50: > 10 µM
[2]; human, read-out: Predicted hepatic Clint
  CLhep predicted: < 4.69 mL/min/kg
[2]; human liver microsome
  hepatocyte CLint: < 2.39 µL/min/1e6 cells
[2]; human liver microsome, read-out: In vitro T1/2
  half-life: > 9.68 h
[2]; human liver microsome, read-out: Scale-up Clint
  CLint scaled: < 6.07 mL/min/kg
CB2
  IC50: > 10 µM
ADORA3
  IC50: > 10 µM
CT26-Luc tumors; CT26-Luc orthotopic model
  %TGI: 76.22%
CT26-Luc tumors; at the given doses
  body weight of tumor-bearing mice: no significant change
CHRM2
  IC50: > 10 µM
MC38 tumors
  %TGI: 50.6%
Human EP1
  IC50: > 10 µM
ADRA2A
  IC50: > 10 µM
ADRB2
  IC50: > 10 µM
Other 25 GPCRs
  IC50: > 10 µM
